# Measurements: US11084783B2, “O-alkyl-benzylideneguanidine derivatives and therapeutic use for the treatment of disorders associated with an accumulation of misfolded proteins” (INFLECTIS BIOSCIENCE, priority 2014, dated 2021)
# Legend:
# INS1 insulinoma cell = test: INS1 cell line cytoprotection from ER stress (tunicamycin); assay type: cell-based; conditions: 6 hour exposure to tunicamycin 2.5 μg/mL, different concentrations, viability 72h
# Protocol: (§1) Cells were plated in 96 well plates at a density of 0.5.10^6 cells/mL for Min6 cell line, 0,4.10^6 cells/mL for INS1 cell line the day before the treatment. ER stress was elicited by addition of 2.5 μg/mL tunicamycin (Sigma Aldrich) together with phosphatases inhibitors. Media were changed 6h later with fresh media and the cytoprotection was maintained by the addition of phosphatases inhibitors. Cell viability was assessed by measuring the reduction of WST-8 into formazan using Cell Counting Kit-8 (Sigma) according to the supplier's recommendation, 72h after tunicamycin treatment.
# Min6 insulinoma cell = test: Min6 cell line cytoprotection from ER stress (tunicamycin); assay type: cell-based; conditions: 6 hour exposure to tunicamycin 2.5 μg/mL, different concentrations, viability 72h
# Protocol: as §1
# Min6 cells = test: Protection against accumulation of misfold prone Insulin Akita; assay type: cell-based; conditions: Min6 cells nucleofected with Insulin Akita, viability 9 days after treatment
# Protocol: Min6 cells were nucleofected with Insulin^Akita mutant constructs and seeded in 96 well-plates at 300,000 cells/mL and 24h later, cells were treated with molecules or left untreated. As a control, cells were nucleofected with non-relevant plasmid. 6 days later, a selective agent was added (G418). Cell viability was assessed by measuring the reduction of WST-8 into formazan using Cell Counting Kit-8 (Sigma) according to the supplier's recommendation, 9 days after treatment.
# HeLa cells [1] = test: Cytoprotection from ER stress (tunicamycin), cell viability by WST-8; assay type: cell-based; set-up: key to Cytoprotection from ER stress compared to guanabenz: +: lower cytoprotective effect compared to Guanabenz; ++: similar cytoprotective effect compared to Guanabenz; +++: higher cytoprotective effect compared to Guanabenz; conditions: HeLa cells, 6 hour exposure to tunicamycin 5 μg/mL, compounds 0.5-10 μM, viability 48 h or 72 h
# From the text: Cytoprotection against ER stress can be measured by a suitable assay. For example, cytoprotection can be measured in HeLa cells in which ER stress is elicited by the addition of media containing tunicamycin, a mixture of homologous nucleoside antibiotics that inhibits the UDP-HexNAc: polyprenol-P HexNAc-1-P family of enzymes and is used to induce unfolded protein response. Cell viability can be detected in the presence and absence of inhibitor compounds after a set period of time, by measuring the reduction of WST-8 into formazan using a standard cell viability kit (such as Cell Viability Counting Kit-8 from Dojindo). Cytoprotection from ER stress is measured in terms of the percentage increase in viable cells (relative to control) after ER stress. Further details of a suitable assay are set forth in the accompanying Examples section.
# This assay is described in Tsaytler et al. (Science 2011). HeLa Cells were cultured in Eagle's Minimum Essential Medium (EMEM) supplemented with Glutamine, Sodium Pyruvate, Non-Essential Amino Acids, Penicillin and Streptomycin containing 10% Foetal Bovine Serum (FBS), at 37° C. in 5% CO2 atmosphere. Cells were plated in 96 well plates at a density of 17,000 cells/mL the day before the treatment. ER stress was elicited by addition of 5 μg/mL tunicamycin (Sigma-Aldrich) together with PPP1R15A inhibitors (0.5-10 μM). Media were changed 6h later with fresh media and the cytoprotection was maintained by the addition of PPP1R15A inhibitors (0.5-10 μM). Cell viability was assessed by measuring the reduction of WST-8 into formazan using Cell Counting Kit-8 (Sigma) according to the supplier's recommendation, 48 h or 72h after tunicamycin treatment. Cytoprotection from ER stress is measured in terms of cytoprotective potency effect compared to the reference compound Guanabenz (Tsaytler et al., Science 2011) after ER stress: • ‘+’ no cytoprotective effect; • ‘+’ lower cytoprotective effect compared to Guanabenz; • ‘++’ similar cytoprotective effect compared to Guanabenz; • ‘+++’ higher cytoprotective effect compared to Guanabenz.
# Table 1 summarizes the results of cytoprotective effect of different compounds of the invention, compared to guanabenz, after the stress induced by a 6 hour exposure of tunicamycin.
# [2] = system: mouse embryonic fibroblasts lipofected with poly I:C; test: In vitro inflammation/infection model: poly I:C induced mouse embryonic fibroblasts; assay type: cell-based; conditions: 25 μM, 6h, IFN-beta ELISA in culture supernatants
# Protocol: Mouse Embryonic Fibroblasts (MEFs) were lipofected with poly I:C and treated with […] compounds of the invention (25 μM) for 6h. After 6h of culture, elF2alpha-phosphorylation (elF2a-P) and PPP1R15A (GADD34) expression was monitored by western blotting, while type-1 Interferon(IFN)-beta production was quantified in culture supernatants by ELISA. Control (nt) and poly I:C/DMSO are respectively negative and positive controls. Poly I:C (polyinosinic:polycytidylic acid or polyinosinic-polycytidylic acid sodium salt) is an immunostimulant used to simulate viral infections. Poly I:C which is structurally similar to double-stranded RNA, is known to interact with toll-like receptor 3 which is expressed in the intracellular compartments of B-cells and dendritic cells. Guanabenz (25 μM) was used as reference inhibitory compound.
# MEFs were cultured in DMEM, 10% FCS (HyClone, Perbio), 100 units/ml penicillin, 100 μg/ml streptomycin, 2 mM glutamine, 1× MEM non-essential amino acids and 50 μM 2-mercaptoethanol. MEFS were treated for the indicated time with 10 μg/ml poly I:C (InvivoGen) in combination with lipofectamine 2000 (Invitrogen).
# Cells were lysed in 1% Triton X-100, 50 mM Hepes, 10 mM NaCl, 2.5 mM MgCl2, 2 mM EDTA, 10% glycerol, supplemented with Complete Mini Protease Inhibitor Cocktail Tablets (Roche). Protein quantification was performed using the BCA Protein Assay (Pierce). 25-50 μg of Triton X-100-soluble material was loaded on 2%-12% gradient or 8% SDS-PAGE before immunoblotting and chemi-luminescence detection (SuperSignal West Pico Chemi-luminescent Substrate, Pierce). Rabbit polyclonal antibodies recognizing GADD34 (C-19) were from Santa Cruz Biotechnology and anti-elF2alpha[pS^52] were from Invitrogen.
# IFN-beta quantification in culture supernatant was performed using the Mouse Interferon Beta ELISA kit (PBL Interferon Source) according to manufacturer instructions.
# Normal response of MEFs to poly I:C is characterized by PPP1R15A expression, increase in elF2alpha-P (variable in time and related to the levels PPP1R15A expression) mediated by PKR activation and type-I IFN production (range 500 to 700 pg/ml). Knock out PPP1R15A MEFs are unable to produce this cytokine in response to poly I:C.
# The potency of compounds of the invention to inhibit PPP1R15A was evaluated by measuring the increase of elF2alpha phosphorylation, the decrease of PPP1R15A expression due to its own pharmacological inhibition resulting in general protein synthesis inhibition and type-I IFN production.
# human alpha2A receptor = molecular target: T1, human alpha2A receptor (Homo sapiens, UniProt P08913); test: Functional GPCR assay for adrenergic α2A receptor (CellKey detection method); assay type: cell-based; conditions: agonist activity, CHO cells expressing human alpha2A receptor, impedance (CellKey); read-out: Functional adrenergic alpha2 receptor assay EC50
# T1 construct: CHO cells endogenously expressing human alpha2A receptor; endogenous in cells; host or cells: CHO cells
# T1 sequence (P08913 1-465): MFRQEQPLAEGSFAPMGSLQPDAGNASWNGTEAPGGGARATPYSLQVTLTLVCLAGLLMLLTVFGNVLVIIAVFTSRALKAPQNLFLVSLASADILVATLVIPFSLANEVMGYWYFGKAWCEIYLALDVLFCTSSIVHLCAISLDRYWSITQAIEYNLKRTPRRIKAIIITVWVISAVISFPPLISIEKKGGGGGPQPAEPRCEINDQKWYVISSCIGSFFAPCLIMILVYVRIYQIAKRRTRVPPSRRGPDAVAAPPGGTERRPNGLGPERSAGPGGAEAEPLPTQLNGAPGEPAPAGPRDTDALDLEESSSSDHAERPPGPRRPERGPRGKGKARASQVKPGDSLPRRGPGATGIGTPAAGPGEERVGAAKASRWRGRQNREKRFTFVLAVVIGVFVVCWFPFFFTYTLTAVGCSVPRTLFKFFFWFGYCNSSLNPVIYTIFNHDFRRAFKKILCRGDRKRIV
# Protocol: The agonist activity of compounds was evaluated on CHO cells […] expressing human alpha2A receptor and was determined by measuring their effects on impedance modulation using the CellKey detection method. Cells were seeded onto 96-well plate at density of 6×10^4 cells/well in HBSS buffer (Invitrogen)+20 mM HEPES (Invitrogen) with 0.1% BSA and are allowed to equilibrate for 60 min at 28° C. before the start of the experiment. Plates were placed onto the system and measurements were made at a temperature of 28° C. Solutions were added simultaneously to all 96 wells using an integrated fluidics system: HBSS (basal control), reference agonist at 100 nM (stimulated control), reference agonist (EC50 determination) or the test compounds. Impedance measurements are monitored for 10 minutes after ligand addition. The standard reference agonist is epinephrine, which is tested in each experiment at several concentrations to generate a concentration-response curve from which its EC50 value is calculated.
# Dose-response data from test compounds were analysed with Hill software using non-linear regression analysis of the concentration-response curves generated with mean replicate values using Hill equation curve fitting.
# HeLa cells [3] = conditions: tunicamycin, Tsaytler et al., Science 2011, cited from earlier work
compound,measurement,setting,value
"CCONC(=N)N/N=C/c1ccncc1Cl [Compound 16, 2-[(3-chloropyridin-4-yl)methylidene]-N-ethoxyhydrazinecarboximidamide]",prevention of INS1 insulinoma cell death (FIG. 8),INS1 insulinoma cell,prevent INS1 insulinoma cell death
same,prevention of Min6 insulinoma cell death (FIG. 7),Min6 insulinoma cell,prevent Min6 insulinoma cell death
same,prevention of cell death associated with accumulation of misfold prone Insulin Akita (FIG. 6),Min6 cells,prevent cell death
same,Cytoprotection from ER stress compared to guanabenz,HeLa cells [1],+
same,prevention of type-I IFN production (FIG. 9),[2],prevent type-I IFN production
same,EC50,human alpha2A receptor,> 33300 nM
CCC1(C2=NCCN2)Cc2ccccc2O1 (centres unmarked) [efaroxan],protection of cells from cytotoxic ER stress,HeLa cells [3],"Neither the α2-adrenergic receptor agonist clonidine, nor the α2-adrenergic receptor antagonist efaroxan protected cells"
"NC(N)=N/N=C/c1c(Cl)cccc1Cl [guanabenz, 2-(2,6-dichlorobenzylidene)hydrazinecarboximidamide]",EC50,"HeLa cells [3]; read-out: median effective concentration, survival of HeLa cells exposed to ER stress",~400 nM
